Source: article PMC11219871, “Epigenetic-based differentiation therapy for Acute Myeloid Leukemia” (Nature Communications, 2024)
“And” between values parts separate entries of the source, which are not always exact repeats. Equal entries are not always repeated.

Experiments:
Format in all cases: in vivo, mouse
[1] = Pharmacokinetic study in plasma samples; details: 10 mg/kg i.p.
Experimental: Compounds CM-444 and CM-1758 were measured in plasma using an Acquity UPLC system (Waters, Manchester, UK) coupled to an Xevo-TQ MS triple-quadrupole mass spectrometer with ESI source.
Compound solutions were prepared by dissolving the solid in dimethyl sulfoxide (DMSO) and this solution was made up to a final volume by the addition of a mixture of Tween 20 and 0.9% NaCl (1/1/8, v-v:v, DMSO/Tween 20/saline). For the pharmacokinetic experiments, a drug dosage of 10 mg/kg was administered as a single intraperitoneal injection to RAG-2 mice. Blood was collected at predetermined post-injection times (15 min, and 1, 2, 4, 8 and 24 h) into EDTA-containing tubes, and plasma was obtained via centrifugation (4 °C, 657 g, 5 min) and stored at −80 °C until analysis.
Chromatographic separation was performed by gradient elution at 0.6 mL/min using an Acquity UPLC BEH C18 column (50 × 2.1 mm, 1.7 µm; Waters). The mobile phase consisted of A: water with 0.1% formic acid, B: methanol with 0.1% formic acid. The autosampler temperature was set at 10 °C and the column temperature at 40 °C. For detection and quantification, the ESI operated in the positive mode was set up for multiple reaction monitoring. The collision gas used was ultra-pure argon at a flow rate of 0.15 mL/min.
Quantification was achieved by external calibration using matrix-matched standards. Concentrations were calculated using a weighted least-squares linear regression (W = 1/x). Calibration standards were prepared by adding the appropriate volume of diluted compound solution (made in a mixture of methanol and water, 50:50, v-v) to aliquots of 20 µL of blank plasma. The calibration standard and sample preparation were as follows: 3% formic acid in methanol was added to precipitate the proteins. The mixture was then vortex-agitated for 1 min and centrifuged at 16,522 g for 10 min at 4 °C. A 5-µL aliquot of the supernatant solution was injected into the LC-MS/MS system for analysis. Frozen plasma samples were thawed at room temperature, vortex mixed thoroughly and subjected to the above-described extraction procedure.
The pharmacokinetic parameters were obtained by fitting the blood concentration-time data to a non-compartmental model with WinNonlin software (Pharsight, Mountain View, CA).

[2] = tested on: ML-2 xenograft in BALB/cA Rag2-/-γc-/- mice; experiment: Subcutaneous xenograft model (tumor volume, CD11b q-PCR, H3Ac, body weight); details: for Tumor volume: ML-2 subcutaneous xenograft, individual mice (Fig 3B); for body weight of mice: subcutaneous ML-2 AML mouse model, individual mice
Experimental: (§1) The subcutaneous xenograft models of ML-2 and MV4-11 derived cells, 5 × 10^6 and 10 × 10^6 cells, respectively, diluted in 100 µL of saline solution were subcutaneously inoculated in the back left flank of female BALB/cA Rag2^−/−γc^−/− mice. When tumors became palpable, the mice were randomized into three groups: vehicle, CM-444 and CM-1758, (eight animals/group). Treatment with 10 mg/kg of CM-444 or CM-1758 i.p. was started 4 days after injection when all mice presented subcutaneous tumors and was administered for 5 consecutive days followed by 2 resting days over 3 weeks for the ML-2 model or daily for 2 weeks for the MV4-11 model. The control group received only 80% saline solution, 10% DMSO […] 10% Tween 20 (diluents of CM-444 and CM-1758). Tumor size was analyzed every 2–3 days using the following method: […], where D and d corresponded to the longest and shortest diameter, respectively. The maximal tumor size/burden permitted by the Animal Care and Ethics Committee of the University of Navarra is 2000 mm^3. This maximal tumor size/burden was not exceeded in any case. ML-2 and MV4-11 tumors were explanted for differentiation and global histone acetylation analysis. Histones were extracted, and a western blot of H3Ac was performed as described above. For the differentiation study, RNA was extracted, and q-PCR of CD11b was performed as described above (CD11b sequence primer can be found in Supplementary Table 10).

[3] = tested on: MV4-11 xenograft in BALB/cA Rag2-/-γc-/- mice; experiment: as above; details: for Tumor volume: MV4-11 subcutaneous xenograft, in mm³; for Tumor volume / body weight of mice: individual mice; for body weight of mice: subcutaneous MV4-11 AML mouse model
Experimental: as §1

COc1cc2nc(-c3ccc(C)o3)cc(NCC3CCN(c4ncc(C(=O)NO)cn4)CC3)c2cc1OC [CM-444, 2-[4-[[[6,7-dimethoxy-2-(5-methyl-2-furyl)-4-quinolyl]amino]methyl]-1-piperidyl]pyrimidine-5-carbohydroxamic acid]
AUClast ([1]; mice, NCA, mean): 0.91615 µM·h | Cl/F ([1]; mice, NCA, mean): 0.53 L/h | Vz/F ([1]; mice, NCA, mean): 6.56 L | t½ ([1]; mice, NCA, mean): 8.46 h | concentration at 0.25 h ([1]; RAG-2, mouse, plasma, intraperitoneal, 0.25 h, read-out: plasmatic concentration, Mean): 916 nM | concentration at 1 h ([1]; RAG-2, mouse, plasma, intraperitoneal, 1 h, read-out: plasmatic concentration, Mean): 203 nM | concentration at 2 h ([1]; RAG-2, mouse, plasma, intraperitoneal, 2 h, read-out: plasmatic concentration, Mean): 27.7 nM | concentration at 4 h ([1]; RAG-2, mouse, plasma, intraperitoneal, 4 h, read-out: plasmatic concentration, Mean): 5 nM | concentration at 8 h ([1]; RAG-2, mouse, plasma, intraperitoneal, 8 h, read-out: plasmatic concentration, Mean): 2.4 nM | concentration at 24 h ([1]; RAG-2, mouse, plasma, intraperitoneal, 24 h, read-out: plasmatic concentration, Mean): 0.9 nM | CL/F ([1]; RAG-2, mouse, plasma, ip, mice, NCA, read-out: Norm. Cl/F (converted)): 355 mL/min/kg | Vd/F ([1]; RAG-2, mouse, plasma, ip, mice, NCA, read-out: Norm. Vz/F): 262 L/kg | clearance ([1]; mice): 0.53 lh^−1 | CD11b expression in explanted tumors ([2]; ML-2 s.c., 10 mg/kg i.p.): significant increase in CD11b expression | H3Ac levels in tumors ([2]; ML-2 s.c., 10 mg/kg i.p.): increase in H3Ac levels | tumor growth ([2]; ML-2 s.c., 10 mg/kg i.p., 5 days on/2 off, 3 weeks): inhibited tumor growth significantly | Tumor volume ([2]; day 0, in mm³): 0 | Tumor volume ([2]; day 8): 50.29 and 0 (2×) and 44.4222 and 26.1593 and 17.7985 and 33.6927 and 34.1731 | Tumor volume ([2]; day 11, in mm³): 57.5494 and 54.0642 and 29.9608 and 34.453 and 70.3613 and 12.6567 and 13.356 and 62.0802 | Tumor volume ([2]; day 13, in mm³): 71.0807 and 75.9644 and 34.9942 and 17.4964 and 64.0599 and 59.7475 and 31.61 and 81.1976 | Tumor volume ([2]; day 15, in mm³): 260.999 and 204.675 and 90.5639 and 88.4341 and 135.48 and 171.734 and 101.038 and 206.002 | Tumor volume ([2]; day 18, in mm³): 480.691 and 730.912 and 126.029 and 148.778 and 375.191 and 457.823 and 357.768 and 468.956 | Tumor volume ([2]; day 20, in mm³): 765.508 and 824.168 and 527.843 and 397.65 and 611.294 and 688.039 and 576.047 and 641.268 | Relative H3Ac/H3 total levels ([2]; after in vivo treatment, subcutaneous ML-2 mouse model, western blot, individual tumors): 1.215 and 1.184 and 2.112 and 1.745 and 1.414 and 2.588 | body weight of mice ([2]; day 4, in g (unit assumed)): 25.5 and 22.7 and 24.1 and 24.4 and 23.6 and 21.4 and 26.1 and 23.7 | body weight of mice ([2]; day 6, in g (unit assumed)): 24.2 and 22.1 and 23.5 and 23 and 22.4 and 20.6 and 24.7 and 22.8 | body weight of mice ([2]; day 8): 23 and 21.7 (2×) and 22.6 and 22.9 and 19.8 and 23.2 and 21.8 | body weight of mice ([2]; day 11, in g (unit assumed)): 25 and 22 and 24 and 24.2 and 22.6 and 21.1 and 24.3 and 21.9 | body weight of mice ([2]; day 13, in g (unit assumed)): 24.5 and 21.9 and 23.2 and 22.6 and 22.9 and 21.2 and 24.7 and 22.3 | body weight of mice ([2]; day 15): 24.9 and 22.5 and 22.9 and 22.2 (2×) and 21.3 and 24.8 and 22.1 | body weight of mice ([2]; day 18, in g (unit assumed)): 24.7 and 23.2 and 23.6 and 22 and 23 and 21.6 and 24.9 and 23.5 | body weight of mice ([2]; day 20): 24.4 and 23.5 and 23.1 (2×) and 20.8 and 21.2 and 25.5 and 23.3 | CD11b expression from tumors measured by q-PCR ([2]; tumors of the subcutaneous ML-2 model, individual tumors (Fig 3C)): 4.258 log10 (2-ΔΔCt) and 6.115 log10 (2-ΔΔCt) and 1.258 log10 (2-ΔΔCt) and 2.581 log10 (2-ΔΔCt) and 3.258 log10 (2-ΔΔCt) | CD11b expression in explanted tumors ([3]; MV4-11 s.c., 10 mg/kg i.p.): significant increase in CD11b expression | H3Ac levels in tumors ([3]; MV4-11 s.c., 10 mg/kg i.p.): increase in H3Ac levels | tumor growth ([3]; MV4-11 s.c., 10 mg/kg i.p. daily, 2 weeks): very close to significance | Tumor volume ([3]; day 0): 0 | Tumor volume ([3]; day 7): 3.193 | Tumor volume ([3]; day 9): 111.805 and 139.808 and 128.905 and 58.5153 and 61.4614 and 71.8536 and 82.1349 and 57.0445 and 0 and 108.84 | Tumor volume ([3]; day 12): 294.457 and 409.686 and 535.985 and 179.87 and 403.211 and 161.575 and 360.839 and 457.558 and 8.3776 and 264.463 | Tumor volume ([3]; day 14): 459.841 and 410.79 and 840.745 and 257.398 and 607.597 and 355.301 and 487.51 and 302.43 and 18.6928 and 395.414 | Relative H3Ac/H3 total levels ([3]; after in vivo treatment, subcutaneous MV4-11 mouse model, western blot, individual tumors): 0.9852 and 1.143 and 1.277 and 1.092 and 1.163 and 1.09 | body weight of mice ([3]; day 1): 21.9 and 20.2 and 23.1 and 24.4 (2×) and 23 and 20.9 and 24.3 and 21.3 and 23.6 | body weight of mice ([3]; day 5, in g (unit assumed)): 20.4 and 18.7 and 20.7 and 21.6 and 21.5 and 19 and 21.7 and 18.8 and 21.2 and 21 | body weight of mice ([3]; day 7): 20.3 and 18.1 and 19.6 (2×) and 20.5 and 18.3 and 21.6 and 18.4 and 21 and 20.7 | body weight of mice ([3]; day 9): 20.7 (2×) and 19.1 (2×) and 20.2 and 19.2 and 20.4 (2×) and 18.9 and 20.6 | body weight of mice ([3]; day 12): 22.2 (2×) and 19.1 and 21.6 and 20 and 22.4 and 20.6 and 23 and 20.1 and 22.6 | body weight of mice ([3]; day 14): 22.1 (2×) and 19.1 and 20.3 and 22.6 (3×) and 20.9 and 23.1 and 19.5 | body weight of mice ([3]; day 16): 21 (2×) and 19.6 and 22 and 21.9 and 20.1 and 24.8 and 20.6 and 22.3 (2×) | CD11b expression, log10 (2-ΔΔCt) ([3]; tumors of the subcutaneous MV4-11 model, q-PCR, individual tumors): 1.258 and 2.58 and 3.158 and 0.925
